{"source": "patent US20240391940A1", "about": "“FUSED RING-CONTAINING COMPOUND, APPLICATION THEREOF, AND COMPOSITION CONTAINING SAME” (GenEros Biopharma Ltd., priority 2020, published 2024)", "key": {"[1]": {"test": "PK profile in beagles (i.v. / oral gavage, plasma LC-MS)", "type": "in vivo", "conditions": "female, beagle, dog, analyte = labelled compound", "text": "Method: SD rats from acceptable sources (N=3, female, 6-8 weeks, weighing 200-230 g, purchased from JH Laboratory Animal Co. LTD, SCXK (SH) 2017-0012 20170012001153) or beagles (N=3, not experimentally naive animals, female, weighing 6.55-8.62 kg, purchased from Beijing Marshall Biotech Co. Ltd., quality inspection number SCXK (BJ) 2016-0001 110318201100068072) were selected and administered, by intravenous injection or oral gavage (3 animals per route), corresponding doses of the test compound GEN1-117 or GEN1-284s (the sample for intravenous injection was dissolved in a solution of 10% DMSO, 10% Soltol HS15 and 80% PBS, and the sample for oral administration was dissolved in a 0.5% aqueous methylcellulose solution). Peripheral blood samples (150 μL) were taken (at 0, 0.083, 0.25, 0.5, 1, 2, 4, 8 and 24 h for the intravenous injection route; at 0, 0.25, 0.5, 1, 2, 4, 8 and 24 h for the oral injection route; into K2-EDTA anticoagulant tubes; centrifuged at 2000 g at 4 C for 5 min within 15 min), and plasma was separated and subjected to LC-MS analysis (LC-MS/MS-37, triple Quad 6500) using the conventional method with diclofenac as an internal standard. Mass spectrometry conditions: ESI cation, MRM detection:\nHPLC conditions: mobile phase A: 0.1% FA in water, mobile phase B: 0.1% FA in ACN\nChromatography column: Waters ACQUITY UPLC HSS T3 (2.1×50 mm, 1.8 μm)\nA test sample standard curve was prepared from 1, 2, 10, 30, 100, 300, 1000, 2700 and 3000 ng/mL (50% ACN in water), and 3 μL of standard-curve solution was mixed with 57 μL of same-species blank plasma. A test plasma sample (60 μL) was well mixed with 6 μL of 10% FA in water, and 30 μL of the mixture was taken and well mixed with 200 μL of the internal standard compound diclofenac (40 ng/mL in ACN). After the resulting mixture was vortexed and shaken for 1 min and centrifuged at 5800 rpm for 10 min, 100 μL of the supernatant was transferred to a new test plate, and 1 μL of solution was loaded on an LC-MS/MS system."}, "[2]": {"test_system": "STAT5 Y694 phosphorylation", "test": "HTRF experiment: STAT5 Y694 phosphorylation in Hela cells", "type": "cell-based, Human", "conditions": "for Inhibition rate @10 μM: 10 μM compound, 2 h pretreatment, interferon stimulation 30 min", "description": "A multifunctional microplate reader (TECAN; […] F PLEX); 96-well cell culture plates (Bioyong), HTRF 384-well low volume plates (Cisbio; Cat #66PL384025); Human interferon 0 (IFN-0) (GenScript; Cat #P01574), STAT5 phospho-Y694 kits (Cisbio; Cat #64AT5PEG).\nHela cells (American Type Culture Collection (ATCC), CCL-2) were cultured in a 96-well plate with DMEM containing 5% fetal bovine serum at a density of 3×10^4 cells/well. The cells were incubated overnight in a 37° C., 5% carbon dioxide humidified incubator. The next day, the original DMEM in the 96-well plate was blotted, and equal volumes of medium containing different concentrations of compounds (stock solutions of compounds prepared with dimethyl sulfoxide were diluted to desired concentrations in medium) were added for 2 h of pretreatment. The plate was left to stand in a 37° C. incubator. Human interferon 0 was then added to a final concentration of 10 nM for stimulation. The plate was gently shaken so the contents were well mixed, and the plate was then left to stand in a 37° C. incubator for 30 min.\nThe medium was removed, and the plate was washed once with an appropriate volume of PBS and then blotted dry. Then 1×lysis buffer was added at 40 μL/well, and the plate was left to stand at room temperature for 30 min (preparation of 1 mL of 1× lysis buffer: mixing well 740 μL of ddH2O with 250 μL of 4× lysis buffer and […]). After 30 min, the cells were repeatedly pipetted until the lysis buffer was not viscous (bubbles were avoided) so that sufficient lysis was achieved.\nIn an HTRF 384-well low volume plate, 4 μL of an antibody premix (containing two antibodies: Cryptate and d2: the two antibodies were each 20-fold diluted with detection buffer and were then mixed in equal volume to form the antibody premix) and 16 μL of the cell lysate were added to each well. The plate was sealed with a sealing membrane and then incubated overnight at room temperature in a dark place.\nAfter the overnight incubation, signals at 665 nm and 620 nm were detected separately on a multifunctional microplate reader. The calculation formula for the STAT5 Y694 phosphorylation assay is: Ratio=[(signal 665 nm)/(signal 620 nm)]×10^4. A dimethyl sulfoxide-only treatment group was set as a negative control (RatioNegative), and an interferon 0 stimulation group without compound addition was set as a positive control (RatioPositive). The inhibition rates of different samples against STAT5 Y694 phosphorylation were normalized: inhibition rate=[1−(RatioExperiment−RatioNegative)/(RatioPositive−RatioNegative)]×100."}, "female BALB/c mice": {"test_system": "female BALB/c mice", "test": "Acute toxicity, single administration in mice", "type": "in vivo", "description": "• Part I: Single administration. A total of 6 mice were used. They were randomly divided into 2 groups: the vehicle control and GEN1-284s (1000 mg/kg), dosed once by oral gavage and observed for 6 days, and changes in body weight and activities were recorded. • Part II: Multiple administrations. This experiment used a total of 6 mice. They were divided into two groups of 3: a GEN1-284s-1000 mg/kg group and a GEN1-284s-300 mg/kg group, and were intragastrically given GEN1-284s for 14 consecutive days at 200 μL each. The state and survival of the mice were observed every day, and their body weights were recorded. Two mice died 2 h after GEN1-284s-1000 mg/kg administration. The dose was changed to 600 mg/kg, and the experiment was continued.\nThis experiment used a total of 6 mice. They were randomly divided into two groups of 3: a vehicle group and a GEN1-284s-1000 mg/kg group, and were intragastrically dosed once on day 0 at 200 μL each. The state and survival of the mice were observed every day, and their body weights were recorded.\nChanges in body weight and survival of the mice were observed during 6 days after the single administration, and changes in body weight and the survival of the mice were observed during 14 consecutive days of high-dose GEN1-284s administration."}, "[3]": {"conditions": "iv, GEN1-284s dosed i.v. 0.5 mg/kg"}, "[4]": {"conditions": "po, GEN1-284s dosed p.o. 5 mg/kg"}}, "note": "Where “and” joins values, the source holds several entries; their conditions need not be identical. Equal entries are not always repeated. Entries after “also recorded” stand apart in the source; their conditions may differ.", "data": [{"compound": "O=C(Cc1ccc2ncccc2c1)N1CCC(n2c(=O)[nH]c3cccc(C(F)(F)F)c32)CC1", "note": "[GEN1-117, 1-(1-(2-(Quinolin-6-yl)acetyl)piperidin-4-yl)-7-(trifluoromethyl)-1H-benzo[d]imidazol-2(3H)-one]", "values": [{"measurement": "AUC(0-t)", "setting": "[1]; [3]", "value": 2, "unit": "µg·h/mL"}, {"measurement": "half-life", "setting": "[1]; [3]", "value": 4.06, "unit": "h"}, {"measurement": "AUC(0-t)", "setting": "[1]; [4]", "value": 17.9, "unit": "µg·h/mL"}, {"measurement": "Cmax", "setting": "[1]; [4]", "value": 2.77, "unit": "µg/mL"}, {"measurement": "Tmax", "setting": "[1]; [4]", "value": 1.33, "unit": "h"}, {"measurement": "bioavailability", "setting": "[1]; [4]", "value": 89.8, "unit": "%"}, {"measurement": "half-life", "setting": "[1]; [4]", "value": 4.18, "unit": "h"}, {"measurement": "Inhibition rate @10 μM", "setting": "[2]", "value": 89.31, "unit": "%"}]}, {"compound": "O=C(Cc1ccc2ncccc2c1)N1CCC(n2c(=O)n(COP(=O)([O-])[O-])c3cccc(C(F)(F)F)c32)CC1.[Na+].[Na+]", "note": "[GEN1-284 salt, (2-Oxo-3-(1-(2-(quinolin-6-yl)acetyl)piperidin-4-yl)-4-(trifluoromethyl)-2,3-dihydro-1H-benzo[d]imidazol-1-yl)methyl disodium phosphate]", "values": [{"measurement": "Changes in body weight after the single administration", "setting": "female BALB/c mice; 1000 mg/kg P.O once on day 0, Day 0, individual mice F4-F6", "value": "23.5 and 21.2 and 21.1"}, {"measurement": "Changes in body weight after the single administration", "setting": "female BALB/c mice; 1000 mg/kg P.O once on day 0, Day 1, individual mice F4-F6", "value": "23.8 and 21.5 and 22"}, {"measurement": "Changes in body weight after the single administration", "setting": "female BALB/c mice; 1000 mg/kg P.O once on day 0, Day 2, individual mice F4-F6", "value": "23.5 and 21.9 and 21.7"}, {"measurement": "Changes in body weight after the single administration", "setting": "female BALB/c mice; 1000 mg/kg P.O once on day 0, Day 3, individual mice F4-F6", "value": "24.1 and 21.8 and 20.3"}, {"measurement": "Changes in body weight after the single administration", "setting": "female BALB/c mice; 1000 mg/kg P.O once on day 0, Day 4, individual mice F4-F6", "value": "24.3 and 21.8 and 22.7"}, {"measurement": "Changes in body weight after the single administration", "setting": "female BALB/c mice; 1000 mg/kg P.O once on day 0, Day 5, individual mice F4-F6", "value": "23.8 and 21.6 and 23.4"}, {"measurement": "Changes in body weight after the single administration", "setting": "female BALB/c mice; 1000 mg/kg P.O once on day 0, Day 6, individual mice F4-F6", "value": "23.4 and 21.6 and 22.8"}, {"measurement": "Effect of single administration on body weight, activity and survival", "setting": "female BALB/c mice; female BALB/c mice, 1000 mg/kg once by oral gavage, observed 6 days, 1000 mg/kg", "value": "did not affect the body weight or activity; also recorded: did not affect the survival and body weight of the animals"}, {"measurement": "AUC(0-t)", "setting": "[1]; [3]", "value": 0.207, "unit": "µg·h/mL"}, {"measurement": "clearance", "setting": "[1]; [3]", "value": 2.61, "unit": "L/h/kg"}, {"measurement": "half-life", "setting": "[1]; [3]", "value": 0.085, "unit": "h"}, {"measurement": "Vd", "setting": "[1]; iv, GEN1-284s dosed i.v. 0.5 mg/kg, read-out: Vdss", "value": 0.155, "unit": "L/kg"}, {"measurement": "IC50", "setting": "[2]", "value": 2.6, "unit": "µM"}, {"measurement": "Inhibition rate @10 μM", "setting": "[2]", "value": 82.46, "unit": "%"}]}]}
